Experimental data as given in US8258114B2, “Modulation of glucose-6-phosphatase translocase expression” (Isis Pharmaceuticals, Inc., priority 2004, dated 2012).
Oligonucleotides are written 5' to 3', each unit as a sugar letter and its base; * is a phosphorothioate linkage, no mark a phosphodiester; rarer units and linkages stand in square brackets, end groups in braces. Plain capitals give the bases only. e = 2'-O-(2-methoxyethyl) (MOE); [5mC] = 5-methylcytosine; d = 2'-deoxy (DNA)

Test system: mouse glucose-6-phosphatase translocase mRNA
Assay: Antisense inhibition of mouse glucose-6-phosphatase translocase mRNA in primary mouse hepatocytes, 50 nM (Table 5)
Assay type: cell-based
Settings: 50 nM oligonucleotide, mRNA by real-time PCR, normalized with RIBOGREEN
Procedure: Primary mouse hepatocytes were prepared from CD-1 mice purchased from Charles River Labs. Primary mouse hepatocytes were routinely cultured in Hepatocyte Attachment Media supplemented with 10% fetal bovine serum (Invitrogen Life Technologies, Carlsbad, Calif.), 250 nM dexamethasone, and 10 nM bovine insulin (Sigma-Aldrich, St. Louis, Mo.). Cells were seeded into 96-well plates (Falcon-Primaria #353872, BD Biosciences, Bedford, Mass.) at a density of approximately 4,000-6,000 cells/well for use in oligomeric compound transfection experiments.
Quantitation of glucose 6-phosphatase translocase mRNA levels was accomplished by real-time quantitative PCR using the ABI PRISM™ 7600, 7700, or 7900 Sequence Detection System (PE-Applied Biosystems, Foster City, Calif.) according to manufacturer's instructions.
Prior to quantitative PCR analysis, primer-probe sets specific to the target gene being measured were evaluated for their ability to be “multiplexed” with a GAPDH amplification reaction. After isolation the RNA is subjected to sequential reverse transcriptase (RT) reaction and real-time PCR, both of which are performed in the same well. RT and PCR reagents were obtained from Invitrogen Life Technologies (Carlsbad, Calif.). […] The RT reaction was carried out by incubation for 30 minutes at 48° C. Following a 10 minute incubation at 95° C. to activate the PLATINUM® Taq, 40 cycles of a two-step PCR protocol were carried out: 95° C. for 15 seconds (denaturation) followed by 60° C. for 1.5 minutes (annealing/extension).
Gene target quantities obtained by RT, real-time PCR were normalized using either the expression level of GAPDH, a gene whose expression is constant, or by quantifying total RNA using RiboGreen™ (Molecular Probes, Inc. Eugene, Oreg.). GAPDH expression was quantified by RT, real-time PCR, by being run simultaneously with the target, multiplexing, or separately. Total RNA was quantified using RiboGreen™ RNA quantification reagent (Molecular Probes, Inc. Eugene, Oreg.).
A series of oligomeric compounds was designed to target different regions of mouse glucose-6-phosphatase translocase, using published sequences cited in Table 1. All compounds in Table 5 are chimeric oligonucleotides (“gapmers”) 20 nucleotides in length, composed of a central “gap” region consisting of 10 2′-deoxynucleotides, which is flanked on both sides (5′ and 3′) by five-nucleotide “wings”. The wings are composed of 2′-O-(2-methoxyethyl) nucleotides, also known as 2′-MOE nucleotides. The internucleoside (backbone) linkages are phosphorothioate throughout the oligonucleotide. All cytidine residues are 5-methylcytidines. The compounds were analyzed for their effect on gene target mRNA levels by quantitative real-time PCR as described in other examples herein, using the following primer-probe set designed to hybridize to mouse glucose-6-phosphatase translocase: • forward primer: […] (SEQ ID NO: 66) • reverse primer: CCATCCCAGCCATCATGAG (SEQ ID NO: 67) and the PCR probe was: FAM-[…]-TAMRA (SEQ ID NO: 68) where FAM is the fluorescent reporter dye and TAMRA is the quencher dye. Mouse target gene quantities were normalized by quantifying total RNA using RIBOGREEN™.
Data are from experiments in which primary mouse hepatocytes were treated with 50 nM of the antisense oligonucleotides of the present invention. A reduction in expression is expressed as percent inhibition in Table 5. If present, “N.D.” indicates “not determined”. The target regions to which these oligomeric compounds are inhibitory are herein referred to as “validated target segments.”

Sequence | % Inhib [%]
AAACGTAAAGGTTCTGTGTT (eA*eA*eA*e[5mC]*eG*dT*dA*dA*dA*dG*dG*dT*dT*d[5mC]*dT*eG*eT*eG*eT*eT; antisense) [ISIS 148990] | 16
AACCAGGATCCAGATCTTGG (eA*eA*e[5mC]*e[5mC]*eA*dG*dG*dA*dT*d[5mC]*d[5mC]*dA*dG*dA*dT*e[5mC]*eT*eT*eG*eG; antisense) [ISIS 148976] | 48
AAGGCCTCCGACCTCGAGGG (eA*eA*eG*eG*e[5mC]*d[5mC]*dT*d[5mC]*d[5mC]*dG*dA*d[5mC]*d[5mC]*dT*d[5mC]*eG*eA*eG*eG*eG; antisense) [ISIS 148967] | 34
AAGTCGGTTTGCCCTCTATA (eA*eA*eG*eT*e[5mC]*dG*dG*dT*dT*dT*dG*d[5mC]*d[5mC]*d[5mC]*dT*e[5mC]*eT*eA*eT*eA; antisense) [ISIS 149007] | 64
AATGCTTCCTACAAGGCCTC (eA*eA*eT*eG*e[5mC]*dT*dT*d[5mC]*d[5mC]*dT*dA*d[5mC]*dA*dA*dG*eG*e[5mC]*e[5mC]*eT*e[5mC]; antisense) [ISIS 148968] | 26
ACAAAGGAGAAGGTTTTGCG (eA*e[5mC]*eA*eA*eA*dG*dG*dA*dG*dA*dA*dG*dG*dT*dT*eT*eT*eG*e[5mC]*eG; antisense) [ISIS 148943] | 47
ACAACTGTGCTGGCTCCACA (eA*e[5mC]*eA*eA*e[5mC]*dT*dG*dT*dG*d[5mC]*dT*dG*dG*d[5mC]*dT*e[5mC]*e[5mC]*eA*e[5mC]*eA; antisense) [ISIS 148982] | 69
ACAGAGACAGCCCTGCCTTC (eA*e[5mC]*eA*eG*eA*dG*dA*d[5mC]*dA*dG*d[5mC]*d[5mC]*d[5mC]*dT*dG*e[5mC]*e[5mC]*eT*eT*e[5mC]; antisense) [ISIS 148970] | 78
ACAGGGCCAGTGTGCTGCGC (eA*e[5mC]*eA*eG*eG*dG*d[5mC]*d[5mC]*dA*dG*dT*dG*dT*dG*d[5mC]*eT*eG*e[5mC]*eG*e[5mC]; antisense) [ISIS 148958] | 50
ACCCACAAGGGCGGACTGCC (eA*e[5mC]*e[5mC]*e[5mC]*eA*d[5mC]*dA*dA*dG*dG*dG*d[5mC]*dG*dG*dA*e[5mC]*eT*eG*e[5mC]*e[5mC]; antisense) [ISIS 148964] | 0
AGACCACAAGGTAGCCAGTG (eA*eG*eA*e[5mC]*e[5mC]*dA*d[5mC]*dA*dA*dG*dG*dT*dA*dG*d[5mC]*e[5mC]*eA*eG*eT*eG; antisense) [ISIS 148961] | 36
AGCCATCATGAGTAGCAATA (eA*eG*e[5mC]*e[5mC]*eA*dT*d[5mC]*dA*dT*dG*dA*dG*dT*dA*dG*e[5mC]*eA*eA*eT*eA; antisense) [ISIS 148973] | 35
AGCCCCTGTGCCAGACCATT (eA*eG*e[5mC]*e[5mC]*e[5mC]*d[5mC]*dT*dG*dT*dG*d[5mC]*d[5mC]*dA*dG*dA*e[5mC]*e[5mC]*eA*eT*eT; antisense) [ISIS 148953] | 58
AGGGTATTCATGAGAGTGGT (eA*eG*eG*eG*eT*dA*dT*dT*d[5mC]*dA*dT*dG*dA*dG*dA*eG*eT*eG*eG*eT; antisense) [ISIS 149006] | 36
AGGTTCTGTGTTAGCCAGAG (eA*eG*eG*eT*eT*d[5mC]*dT*dG*dT*dG*dT*dT*dA*dG*d[5mC]*e[5mC]*eA*eG*eA*eG; antisense) [ISIS 148989] | 58
ATAGGCCGTGGCGAGGGTTC (eA*eT*eA*eG*eG*d[5mC]*d[5mC]*dG*dT*dG*dG*d[5mC]*dG*dA*dG*eG*eG*eT*eT*e[5mC]; antisense) [ISIS 148972] | 36
ATCTTGGGTGAGTCACTGGT (eA*eT*e[5mC]*eT*eT*dG*dG*dG*dT*dG*dA*dG*dT*d[5mC]*dA*e[5mC]*eT*eG*eG*eT; antisense) [ISIS 148975] | 42

Sequence | % Inhib [%]
ATGAGAGGTTCCACACAAGT (eA*eT*eG*eA*eG*dA*dG*dG*dT*dT*d[5mC]*d[5mC]*dA*d[5mC]*dA*e[5mC]*eA*eA*eG*eT; antisense) [ISIS 148979] | 54
ATGGAGTCTAGAACCAAACG (eA*eT*eG*eG*eA*dG*dT*d[5mC]*dT*dA*dG*dA*dA*d[5mC]*d[5mC]*eA*eA*eA*e[5mC]*eG; antisense) [ISIS 148995] | 56
CACAGAAACGTAAAGGTTCT (e[5mC]*eA*e[5mC]*eA*eG*dA*dA*dA*d[5mC]*dG*dT*dA*dA*dA*dG*eG*eT*eT*e[5mC]*eT; antisense) [ISIS 148991] | 22
CACAGACTCTTGACTGCTCC (e[5mC]*eA*e[5mC]*eA*eG*dA*d[5mC]*dT*d[5mC]*dT*dT*dG*dA*d[5mC]*dT*eG*e[5mC]*eT*e[5mC]*e[5mC]; antisense) [ISIS 148939] | 41
CACGGCTCCCAAAACCAGGA (e[5mC]*eA*e[5mC]*eG*eG*d[5mC]*dT*d[5mC]*d[5mC]*d[5mC]*dA*dA*dA*dA*d[5mC]*e[5mC]*eA*eG*eG*eA; antisense) [ISIS 148977] | 9
CAGAGCGATCTCATCCACCA (e[5mC]*eA*eG*eA*eG*d[5mC]*dG*dA*dT*d[5mC]*dT*d[5mC]*dA*dT*d[5mC]*e[5mC]*eA*e[5mC]*e[5mC]*eA; antisense) [ISIS 148944] | 35
CAGAGGGTCCAGATTTCGGA (e[5mC]*eA*eG*eA*eG*dG*dG*dT*d[5mC]*d[5mC]*dA*dG*dA*dT*dT*eT*e[5mC]*eG*eG*eA; antisense) [ISIS 148959] | −6
CCAAACTGGGATGGCTCAAA (e[5mC]*e[5mC]*eA*eA*eA*d[5mC]*dT*dG*dG*dG*dA*dT*dG*dG*d[5mC]*eT*e[5mC]*eA*eA*eA; antisense) [ISIS 148954] | 48
CCAAACTTCCAGCCAGGTTC (e[5mC]*e[5mC]*eA*eA*eA*d[5mC]*dT*dT*d[5mC]*d[5mC]*dA*dG*d[5mC]*d[5mC]*dA*eG*eG*eT*eT*e[5mC]; antisense) [ISIS 148956] | 27
CCACAGGCCATTAATACTCA (e[5mC]*e[5mC]*eA*e[5mC]*eA*dG*dG*d[5mC]*d[5mC]*dA*dT*dT*dA*dA*dT*eA*e[5mC]*eT*e[5mC]*eA; antisense) [ISIS 148999] | 45
CCAGTGGACAGCACCCAGAG (e[5mC]*e[5mC]*eA*eG*eT*dG*dG*dA*d[5mC]*dA*dG*d[5mC]*dA*d[5mC]*d[5mC]*e[5mC]*eA*eG*eA*eG; antisense) [ISIS 148960] | 28
CCATTAAGAAACCAAGGAGC (e[5mC]*e[5mC]*eA*eT*eT*dA*dA*dG*dA*dA*dA*d[5mC]*d[5mC]*dA*dA*eG*eG*eA*eG*e[5mC]; antisense) [ISIS 148952] | 20
CCGTAGCCTTGGGCTGCCAT (e[5mC]*e[5mC]*eG*eT*eA*dG*d[5mC]*d[5mC]*dT*dT*dG*dG*dG*d[5mC]*dT*eG*e[5mC]*e[5mC]*eA*eT; antisense) [ISIS 148941] | 62
CCGTGTCCTGCCAGTAAGGC (e[5mC]*e[5mC]*eG*eT*eG*dT*d[5mC]*d[5mC]*dT*dG*d[5mC]*d[5mC]*dA*dG*dT*eA*eA*eG*eG*e[5mC]; antisense) [ISIS 148986] | 55
CCTAGGAGAAGAAGAAGGGT (e[5mC]*e[5mC]*eT*eA*eG*dG*dA*dG*dA*dA*dG*dA*dA*dG*dA*eA*eG*eG*eG*eT; antisense) [ISIS 148998] | 21
CGAGGGTTCCCATACAGAGA (e[5mC]*eG*eA*eG*eG*dG*dT*dT*d[5mC]*d[5mC]*d[5mC]*dA*dT*dA*d[5mC]*eA*eG*eA*eG*eA; antisense) [ISIS 148971] | 88
